For test [1], the system named is MES-induced seizure spread. The experiment in a line: Maximal Electroshock Seizure (MES) test, mice i.p. The class given is in vivo. Particulars: for MES, number of animals protected / total number of animals tested: mice i.p. An excerpt:
(§1) The fluoro derivatives synthesized were submitted to the National Institute of Neurological Disorders and Stroke (NINDS) for evaluation in a standard panel of assays. Two convulsant tests (MES and scMET), and a toxicity screen (rotorod in mice, positional sense and gait in rats) were employed for evaluating the compounds activity as neuroprotecting agents. These testing procedures are described in detail in Molecular and Cellular Targets for Anti-epileptic Drugs, eds. G. Avanzini, G. Regesta, P. Tanganelli, M. Avoli, 1997, John Libbey & Company Ltd, pp 191-198. The felbamate derivatives were evaluated for anticonvulsant activity following intraperitoneal (i.p.) administration in mice and oral administration in rats.
The MES test is a model for generalized tonic-clonic seizures and is used to identify compounds which prevent seizure spread. The behavioral and electrographic seizures generated in this model are consistent with the human disorder. In the MES test, an electrical stimulus of 0.2 s in duration (50 mA in mice and 150 mA in rat at 60Hz) was delivered via corneal electrodes primed with an electrolyte solution containing an anesthetic agent. […] Rats were tested at time intervals between 0.25 and 4 hours following a standard oral dose of 30 mg/kg. Abolition of the hindlimb tonic extensor component indicates the test compound's ability to inhibit MES-induced seizure spread.
(§2) For the MES and scMET tests the data is presented in the form of the number of animals protected by the administered compound / total number of animals tested. […] Qualitative data was obtained for fluoro felbamate 12 (Tables 1 and 2A), fluoro monocarbamate felbamate 13 (Tables 1 and 2B), and fluorodioxo 16 (Tables 1 and 2C) and for cyclic felbamate 21 (Tables 5 and 6B) and cyclic monocarbamate 22 (Tables 5 and 6A). More extensive quantitative data was also obtained for fluoro felbamate 12 in mice (Table 3) and rats (Table 4).

For test [2], the system named is MES-induced seizure spread. Kind of test: Maximal Electroshock Seizure (MES) test, rats p.o. Particulars: for MES, number of animals protected / total number of animals tested: rat p.o., 30 mg/kg. The class given is in vivo, rat.
Source text: as §1
(§3) The MES test is a model for generalized tonic-clonic seizures and is used to identify compounds which prevent seizure spread. The behavioral and electrographic seizures generated in this model are consistent with the human disorder. In the MES test, an electrical stimulus of 0.2 s in duration (50 mA in mice and 150 mA in rat at 60Hz) was delivered via corneal electrodes primed with an electrolyte solution containing an anesthetic agent. Mice were tested at 30 minutes and 4 hours following doses of 30, 100 and 300 mg/kg of test compound. Rats were tested at time intervals between 0.25 and 4 hours following a standard oral dose of 30 mg/kg. Abolition of the hindlimb tonic extensor component indicates the test compound's ability to inhibit MES-induced seizure spread.
as §2
(Protection in the maximal electroshock model is a classic sign of anticonvulsant action.)

Test [3] has as its system MES-induced seizure spread. Kind of test: Maximal Electroshock Seizure (MES) test, mice oral. It is filed as in vivo. To be noted: Mus musculus, oral administration. As for the experimental part: as §3
Toxicity across time doe not occur until dosages of 300mg/kg. […] Quantitative results obtained for fluoro felbamate 12 in mice indicated a MES ED50 of approximately 20 mg/kg with a safety ratio of at least five (see Table 3). Results obtained for oral administration of fluoro felbamate 12 to rats indicated a MES ED50 of about 3 mg/kg with no toxicity at doses up to 500 mg/kg.

Molecules are shown by their SMILES.

As usually defined, the ED50 is the dose that gives a 50% effect, or the effect in half of the subjects.

In the case of `NC(=O)OCC(F)(COC(N)=O)c1ccccc1` [fluoro felbamate, 2-Fluoro-2-phenyl-1,3-propanediol dicarbamate], the ED50 is around 20 mg/kg in test [1] (Mus musculus, ip, read-out: MES ED50, mouse, I.P.); around 3 mg/kg in test [2] (Rattus norvegicus, po, read-out: MES ED50, rat, p.o.); around 27 mg/kg in test [3]. Moreover, the “MES, number of animals protected / total number of animals tested” value in test [1] (3 mg/kg, 0.5h) is recorded as 0/4; in test [1] (3 mg/kg, 4.0h), 0/1; in test [1] (10 mg/kg, 0.5h) it was 0/4; in test [1] (10 mg/kg, 4.0h) it was 1/4; in test [1] (30 mg/kg, 0.5h) it was 1/1; in test [1] (30 mg/kg, 4.0h), 1/1. Also, the “MES, number of animals protected / total number of animals tested” value is reported as 3/3 in test [1] (100 mg/kg, 0.5h); 3/3 in test [1] (100 mg/kg, 4.0h); 1/1 in test [1] (300 mg/kg, 0.5h); 1/1 in test [1] (300 mg/kg, 4.0h); 2/4 in test [2] (0.25h); 4/4 in test [2] (0.5h). Besides, the “MES, number of animals protected / total number of animals tested” value in test [2] (1.0h), in test [2] (2.0h) and in test [2] (4.0h) was 4/4 throughout. The “MES ED50” value in test [1] (mouse, I.P.) is listed as 19.96 mg/kg.

Values taken from patent EP1282414B1, “FELBAMATE DERIVED COMPOUNDS FOR TREATING NEUROPATHIC PAIN” (University of Virginia Patent Foundation, priority 2000, dated 2001).
